The text below walks through data of US9650339B2, “Inhibitors of histone demethylases” (Gilead Sciences, Inc., priority 2013, dated 2017).

For one assay, the target named is T1, KDM3B (JMJD1B) (Homo sapiens, UniProt Q7LBC6).
T1 construct: 842-1761; host or cells: Bac (baculovirus system)
T1 sequence (Q7LBC6 842-1761): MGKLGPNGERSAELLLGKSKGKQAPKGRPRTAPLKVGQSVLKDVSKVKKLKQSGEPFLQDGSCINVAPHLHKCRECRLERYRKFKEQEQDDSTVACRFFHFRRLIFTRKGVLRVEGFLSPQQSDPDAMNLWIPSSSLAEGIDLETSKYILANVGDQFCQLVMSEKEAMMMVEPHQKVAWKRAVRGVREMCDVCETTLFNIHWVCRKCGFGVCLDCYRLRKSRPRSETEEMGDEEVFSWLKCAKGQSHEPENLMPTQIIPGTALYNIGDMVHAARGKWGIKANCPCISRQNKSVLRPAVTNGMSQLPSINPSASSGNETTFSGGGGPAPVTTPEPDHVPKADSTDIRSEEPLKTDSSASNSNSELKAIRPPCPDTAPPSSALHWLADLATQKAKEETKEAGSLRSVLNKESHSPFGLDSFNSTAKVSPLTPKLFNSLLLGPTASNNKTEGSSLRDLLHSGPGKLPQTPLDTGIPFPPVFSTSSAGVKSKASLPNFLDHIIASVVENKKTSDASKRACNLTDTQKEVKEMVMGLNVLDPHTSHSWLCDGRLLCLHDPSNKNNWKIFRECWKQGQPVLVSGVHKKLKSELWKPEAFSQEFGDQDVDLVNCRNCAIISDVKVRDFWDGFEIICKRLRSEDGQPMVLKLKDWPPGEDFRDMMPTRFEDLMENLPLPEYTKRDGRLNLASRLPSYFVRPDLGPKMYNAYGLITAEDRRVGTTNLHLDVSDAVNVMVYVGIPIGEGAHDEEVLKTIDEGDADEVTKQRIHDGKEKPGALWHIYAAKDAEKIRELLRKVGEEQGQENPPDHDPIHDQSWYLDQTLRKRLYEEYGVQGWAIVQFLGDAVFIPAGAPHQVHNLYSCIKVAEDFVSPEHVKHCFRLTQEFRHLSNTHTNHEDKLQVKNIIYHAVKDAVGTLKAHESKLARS
Briefly: Histone lysine demethylase AlphaLISA assay, KDM3B. The class given is biochemical. The following applies: read-out: KDM3B HDME Inhibition IC50. The procedure:
Assays are performed analogously to the protocol described by PerkinElmer (Roy et al. PerkinElmer Technical Note: AlphaLISA #12, April 2011)
Enzymes are dissolved in enzyme buffer and incubated for 10 min before being added to 3% DMSO solutions of compounds in enzyme buffer. Incubated for another 10 minutes, before substrate solution is added and the reaction mixture is incubated at room temperature. 10 μL acceptor beads, suspended in Epigenetic Buffer (Perkin Elmer AL008) from stock, are added and the suspension is incubated in the dark at room temperature, before a suspension of streptavidin donor beads (Perkin Elmer 6760002) in Epigenetic Buffer is added. After incubation at room temperature in the dark the plates are read. […]
BK9M2: Biotin-ARTKQTAR(KMe2)STGGKAPRKQ-NH2 (AnaSpec 64359) […]
Substrate Solution: Substrate, 25 μM L-Asc, and 10 μM α-KG in Buffer A.

The target in the next assay is T2, KDM2B (FBXL10) (Homo sapiens, UniProt Q8NHM5).
T2 sequence (Q8NHM5 1-650): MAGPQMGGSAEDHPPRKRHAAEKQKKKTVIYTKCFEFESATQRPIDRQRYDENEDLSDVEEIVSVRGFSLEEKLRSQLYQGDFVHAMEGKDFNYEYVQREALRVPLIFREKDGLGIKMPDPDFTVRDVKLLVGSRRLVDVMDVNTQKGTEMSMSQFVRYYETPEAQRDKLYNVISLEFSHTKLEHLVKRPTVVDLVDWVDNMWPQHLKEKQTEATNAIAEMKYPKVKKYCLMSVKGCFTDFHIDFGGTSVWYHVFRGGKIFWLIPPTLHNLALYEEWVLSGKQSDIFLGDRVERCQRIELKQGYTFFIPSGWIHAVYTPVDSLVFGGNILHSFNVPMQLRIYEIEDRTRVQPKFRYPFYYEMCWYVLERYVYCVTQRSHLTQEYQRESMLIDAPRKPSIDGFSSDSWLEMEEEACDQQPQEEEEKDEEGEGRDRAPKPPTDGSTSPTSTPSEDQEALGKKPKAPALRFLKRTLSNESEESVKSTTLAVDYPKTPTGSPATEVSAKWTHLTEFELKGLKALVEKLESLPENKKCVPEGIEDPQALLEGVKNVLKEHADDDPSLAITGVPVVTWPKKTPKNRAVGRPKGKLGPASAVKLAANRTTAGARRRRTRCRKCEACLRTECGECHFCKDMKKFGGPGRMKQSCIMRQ
Nature of the assay: Histone lysine demethylase AlphaLISA assay, KDM2B. The class given is biochemical. The following applies: read-out: KDM2B HDME Inhibition IC50. Put shortly: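 Biotinylated methylated H3 peptides (K9, K4, K27 or K36 marks) served as substrate, with 25 μM L-Asc and 10 μM α-KG. Enzymes were preincubated 10 min, then exposed to compounds (3% DMSO solutions) 10 min; product detected by AlphaLISA acceptor and streptavidin donor beads at room temperature in dark.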
A general note: Alpha assays give light when donor and acceptor beads are brought close together.

Each structure is given as a SMILES string.

For the compound `CCN1CCCC1CNC(=O)CNCc1cc(C=O)ccn1` (stereo not drawn) [Compound 104, N-[(1-ethylpyrrolidin-2-yl)methyl]-2-{[(4-formylpyridin-2-yl)methyl]amino}-acetamide], the IC50 at KDM3B (JMJD1B) and on KDM2B (FBXL10) was greater than 2.5 µM each time.

In the case of `CN(C)C(=O)CNCc1cc(/C=N\C2CC2)ccn1` [Compound 33], the figures for the half-inhibitory concentration (IC50) on KDM3B (JMJD1B) and on KDM2B (FBXL10) were greater than 2.5 µM and 0.25 to 2.5 µM, respectively. As for `CC(C)C[C@H](NCc1cc(/C=N/CCO)ccn1)C(=O)N1CCCCC1` [Compound 95, (2S)-2-[({4-[[(2-hydroxyethyl)imino]-methyl]pyridin-2-yl}methyl)amino]-4-methyl-1-(piperidin-1-yl)pentan-1-one], the IC50 on KDM2B (FBXL10) is greater than 2.5 µM. On to `CCN(CC)CCCCNC(=O)CNCc1cc(/C=N/C2CC2)ccn1` [Compound 48, 2-[({4-[N-cyclopropyl-carboximidoyl]pyridin-2-yl}methyl)amino]-N-[4-(diethylamino)-butyl]acetamide], for which the half-inhibitory concentration (IC50) at KDM3B (JMJD1B) and at KDM2B (FBXL10) was greater than 2.5 µM each time. With `CN(C)C/C=C/CNCc1cc(C=O)ccn1` [Compound 98, 2-({[(2E)-4-(dimethylamino)but-2-en-1-yl]amino}-methyl)pyridine-4-carbaldehyde], the IC50 at KDM3B (JMJD1B) and at KDM2B (FBXL10) was greater than 2.5 µM each time. Turning to `CCSCCNCc1cc(/C=N/C2CC2)ccn1` [Compound 39, N-{[2-({[2-(ethylsulfanyl)-ethyl]amino}methyl)pyridin-4-yl]methylidene}-cyclopropanamine], the IC50 on KDM3B (JMJD1B) was greater than 2.5 µM; at KDM2B (FBXL10), 0.25 to 2.5 µM. Taken in the same sequence, the figures for `CCCCCCCC/N=C/c1ccnc(CNCC(=O)N(CC)CC)c1` [Compound 58, N,N-diethyl-2-[({4-[(octylimino)methyl]-pyridin-2-yl}methyl)amino]-acetamide] were greater than 2.5 µM and 0.25 to 2.5 µM. Taken in the same sequence, the figures for `CN(C)CCCCCNCc1cc(/C=N/C2CC2)ccn1` [Compound 47, N-{[2-({[5-(dimethylamino)-pentyl]amino}-methyl)pyridin-4-yl]methylidene}-cyclopropanamine] were greater than 2.5 µM and greater than 2.5 µM. Taken in the same sequence, the figures for `O=Cc1ccnc(CNCC(=O)N2CCC[C@@H]2CN2CCCC2)c1` [Compound 102, 2-[({2-oxo-2-[(2R)-2-(pyrrolidin-1-ylmethyl)pyrrolidin-1-yl]ethyl}amino)-methyl]pyridine-4-carbaldehyde] were greater than 2.5 µM and greater than 2.5 µM. For the compound `CN(C)CCC/N=C/c1ccnc(CNCCCN(C)C)c1` [Compound 37, [3-(dimethylamino)propyl]-({4-[{[3-(dimethylamino)propyl]-imino}methyl]pyridin-2-yl}methyl)amine], the IC50 at KDM3B (JMJD1B) and at KDM2B (FBXL10) was greater than 2.5 µM in each case.

Regarding `CNCc1ccnc(CNCCCN(C)Cc2ccccc2)c1` [Compound 17, benzyl(methyl){3-[({4-[(methylamino)methyl]-pyridin-2-yl)methyl)-amino]propyl}-amine], the half-inhibitory concentration (IC50) at KDM3B (JMJD1B) and at KDM2B (FBXL10) was greater than 2.5 µM in each case.

As for `CCCNCc1cc(CNC2CC2)ccn1` [Compound 12, N-({2-[(propylamino)methyl]-pyridin-4-yl}methyl)-cyclopropanamine], the IC50 at KDM3B (JMJD1B) and on KDM2B (FBXL10) was greater than 2.5 µM each time. For `CN(C)C/C=C\CNCc1cc(C=O)ccn1` [Compound 99, 2-({[(2Z)-4-(dimethylamino)-but-2-en-1-yl]amino}methyl)-pyridine-4-carbaldehyde], the IC50 at KDM3B (JMJD1B) and on KDM2B (FBXL10) was greater than 2.5 µM each time. For the compound `CCN(CC)CCCCNCc1cc(CNC(=O)C(F)(F)F)ccn1` [Compound 1, N-{[2-({[4-(diethylamino)butyl]-amino}methyl)pyridin-4-yl]methyl}-2,2,2-trifluoroacetamide], the IC50 at KDM3B (JMJD1B) and at KDM2B (FBXL10) was greater than 2.5 µM each time. Consider `CCN(CC(C)(C)N(C)C)C(=O)CNCc1cc(C=O)ccn1` [Compound 118, N-[2-(dimethylamino)-2-methylpropyl]-N-ethyl-2-{[(4-formylpyridin-2-yl)methyl]amino}-acetamide], for which, on KDM2B (FBXL10), the IC50 is greater than 2.5 µM. Consider `CCN(CC)C(=O)CNCc1cc(C=O)ccn1` [Compound 105, N,N-diethyl-2-{[(4-formylpyridin-2-yl)methyl]amino}-acetamide], for which the IC50 on KDM3B (JMJD1B) and on KDM2B (FBXL10) was greater than 2.5 µM in each case. Take `CCN(CCC#N)C(=O)CNCc1cc(/C=N/C2CC2)ccn1` [Compound 50, N-(2-cyanoethyl)-2-[({4-[N-cyclopropyl-carboximidoyl]-pyridin-2-yl}methyl)amino]-N-ethylacetamide]: the IC50 is greater than 2.5 µM on KDM3B (JMJD1B) and 0.25 to 2.5 µM on KDM2B (FBXL10).

`CN(C)CCCNCc1cc(/C=N/CCN(C)C)ccn1` [Compound 38, ({4-[{[2-(dimethylamino)ethyl]-imino}methyl]pyridin-2-yl}methyl)[3-(dimethylamino)-propyl]amine]: the IC50 on KDM3B (JMJD1B) and on KDM2B (FBXL10) was greater than 2.5 µM throughout. With `NCc1ccnc(CNCCCCN2CCC2)c1` [Compound 7, [2-({[4-(azetidin-1-yl)butyl]amino}methyl)-pyridin-4-yl]-methanamine], the IC50 at KDM3B (JMJD1B) and at KDM2B (FBXL10) was greater than 2.5 µM each time. On to `CCN(CCN(C)C)C(=O)CNCc1cc(C2OCC(Cc3ccccc3)CN2C(=O)C(F)(F)F)ccn1` (stereo not drawn) [Compound 90, 2-[({4-[5-benzyl-3-(trifluoroacetyl)-1,3-oxazinan-2-yl]pyridin-2-yl}methyl)amino]-N-[2-(dimethylamino)-ethyl]-N-ethylacetamide], for which the IC50 on KDM2B (FBXL10) is greater than 2.5 µM.

Take `OCC/N=C/c1ccnc(CNCCc2ccccc2OCc2ccccc2)c1` [Compound 93, 2-[({2-[({2-[2-(benzyloxy)phenyl]-ethyl}amino)methyl]-pyridin-4-yl}methylidene)-amino]ethan-1-ol]: the IC50 at KDM2B (FBXL10) was greater than 2.5 µM. As for `CN(Cc1ccccc1F)C(=O)CNCc1cc(/C=N/CCO)ccn1` [Compound 92, N-[(2-fluorophenyl)methyl]-2-[({4-[[(2-hydroxyethyl)imino]-methyl]pyridin-2-yl}methyl)amino]-N-methylacetamide], the IC50 on KDM2B (FBXL10) is greater than 2.5 µM.

On to `CCN(CCN(C)C)C(=O)CNCc1cc(C2OCC3(CC3)CN2C(=O)C(F)(F)F)ccn1` (stereo not drawn) [Compound 91, N-[2--(dimethylamino)-ethyl]-N-ethyl-2-[({4-[7-(trifluoroacetyl)-5-oxa-7-azaspiro[2.5]-octan-6-yl]pyridin-2-yl}methyl)amino]-acetamide], for which the IC50 at KDM2B (FBXL10) is greater than 2.5 µM.

Take `CN(CC(=O)N1CCCCC1)Cc1cc(C=O)ccn1` [Compound 120, 2-({methyl[2-oxo-2-(piperidin-1-yl)ethyl]amino}-methyl)pyridine-4-carbaldehyde]: the IC50 at KDM2B (FBXL10) was greater than 2.5 µM.

In the case of `CCN(CCC#N)C(=O)CNCc1cc(/C=N/CCO)ccn1` [Compound 94, N-(2-cyanoethyl)-N-ethyl-2-[({4-[[(2-hydroxyethyl)imino]-methyl]pyridin-2-yl}methyl)amino]-acetamide], the concentration for half-maximal inhibition (IC50) at KDM2B (FBXL10) was in the range of 0.25 to 2.5 µM.

The IC50 is the midpoint of a concentration-inhibition curve.
